pKi: −log10 of the molar value.
Target: T1, ALK (Homo sapiens, UniProt Q9UM73)
T1 construct: purchased Millipore
Assay: ALK kinase assay (HTRF), apparent Ki
Format: biochemical
Conditions: apparent Ki from IC50 by Cheng-Prusoff; ALK (Millipore), 50 μM ATP; read-out: HTRF_ALK Human-Ki
Experimental: The following procedure is used to determine ALK Activity.
ALK kinase assays were conducted with the indicated final concentrations unless otherwise specified. In 384 well black plates (Axygen), 8 μl of compound (2% DMSO) was incubated with 8 μl Lck-peptide substrate (0.5 μM, biotin-Ahx-GAEEEIYAAFFA-COOH) and 8 μl of a mixture of ALK (3 nM, Millipore) and ATP (50 μM) in reaction buffer (50 mM Hepes, pH 7.4; 10 mM MgCl2; 2 mM MnCl2; 0.1 mM sodium orthovanadate; 0.01% BSA and 1 mM DTT (added fresh before assay) for 1 h at room temperature. Reactions were then quenched by the addition of 30 μl quench solution (streptavidin-allophycocyanin and Europium-cryptate PT66 monoclonal antibody in 40 mM Hepes, pH 7.4; 480 mM KF; 66 mM EDTA; 0.01% Tween-20; and 0.1% BSA) at room temperature. Plates were read 1 h after quenching on an Envision Multilaber Reader and IC50 values were calculated using a sigmoidal fit of the concentration/inhibition response curves. These values were converted to apparent Ki values using the Cheng-Prusoff relationship.
Alternatively, 4 nM ALK (Millipore) and 50 μM ATP were pre-incubated for 30 min at room temperate in 384 well plates (Corning 3676) in 2.5× reaction buffer (125 nM SEB from Cisbio Bioassays, 12.5 mM MgCl2, 5 mM MnCl2, and 2.5 mM DTT). Reactions were initiated by the addition of 4 μl ALK-ATP mixture to 2 μl compounds (2% DMSO) and 4 μl TK-substrate biotin (Cisbio Bioassays). After incubation for 1 h at room temperature, reactions were quenched in 10 μl stop buffer (Cisbio detection buffer containing Streptavididn-XL665 and Eu-Cryptate PT66 monoclonal antibody). Plates were read 1 h after quenching on an Envision Multilaber Reader and IC50 values were calculated using a sigmoidal fit of the concentration/inhibition response curves. These values were converted to apparent Ki values using the Cheng-Prusoff relationship. Results are shown in Table 1 A correlates to an Ki=<100 nM, B correlates to an Ki between 100 nM and 1 μM, C correlates to an Ki=>1 μM.

T1 sequence (Q9UM73 19-1620): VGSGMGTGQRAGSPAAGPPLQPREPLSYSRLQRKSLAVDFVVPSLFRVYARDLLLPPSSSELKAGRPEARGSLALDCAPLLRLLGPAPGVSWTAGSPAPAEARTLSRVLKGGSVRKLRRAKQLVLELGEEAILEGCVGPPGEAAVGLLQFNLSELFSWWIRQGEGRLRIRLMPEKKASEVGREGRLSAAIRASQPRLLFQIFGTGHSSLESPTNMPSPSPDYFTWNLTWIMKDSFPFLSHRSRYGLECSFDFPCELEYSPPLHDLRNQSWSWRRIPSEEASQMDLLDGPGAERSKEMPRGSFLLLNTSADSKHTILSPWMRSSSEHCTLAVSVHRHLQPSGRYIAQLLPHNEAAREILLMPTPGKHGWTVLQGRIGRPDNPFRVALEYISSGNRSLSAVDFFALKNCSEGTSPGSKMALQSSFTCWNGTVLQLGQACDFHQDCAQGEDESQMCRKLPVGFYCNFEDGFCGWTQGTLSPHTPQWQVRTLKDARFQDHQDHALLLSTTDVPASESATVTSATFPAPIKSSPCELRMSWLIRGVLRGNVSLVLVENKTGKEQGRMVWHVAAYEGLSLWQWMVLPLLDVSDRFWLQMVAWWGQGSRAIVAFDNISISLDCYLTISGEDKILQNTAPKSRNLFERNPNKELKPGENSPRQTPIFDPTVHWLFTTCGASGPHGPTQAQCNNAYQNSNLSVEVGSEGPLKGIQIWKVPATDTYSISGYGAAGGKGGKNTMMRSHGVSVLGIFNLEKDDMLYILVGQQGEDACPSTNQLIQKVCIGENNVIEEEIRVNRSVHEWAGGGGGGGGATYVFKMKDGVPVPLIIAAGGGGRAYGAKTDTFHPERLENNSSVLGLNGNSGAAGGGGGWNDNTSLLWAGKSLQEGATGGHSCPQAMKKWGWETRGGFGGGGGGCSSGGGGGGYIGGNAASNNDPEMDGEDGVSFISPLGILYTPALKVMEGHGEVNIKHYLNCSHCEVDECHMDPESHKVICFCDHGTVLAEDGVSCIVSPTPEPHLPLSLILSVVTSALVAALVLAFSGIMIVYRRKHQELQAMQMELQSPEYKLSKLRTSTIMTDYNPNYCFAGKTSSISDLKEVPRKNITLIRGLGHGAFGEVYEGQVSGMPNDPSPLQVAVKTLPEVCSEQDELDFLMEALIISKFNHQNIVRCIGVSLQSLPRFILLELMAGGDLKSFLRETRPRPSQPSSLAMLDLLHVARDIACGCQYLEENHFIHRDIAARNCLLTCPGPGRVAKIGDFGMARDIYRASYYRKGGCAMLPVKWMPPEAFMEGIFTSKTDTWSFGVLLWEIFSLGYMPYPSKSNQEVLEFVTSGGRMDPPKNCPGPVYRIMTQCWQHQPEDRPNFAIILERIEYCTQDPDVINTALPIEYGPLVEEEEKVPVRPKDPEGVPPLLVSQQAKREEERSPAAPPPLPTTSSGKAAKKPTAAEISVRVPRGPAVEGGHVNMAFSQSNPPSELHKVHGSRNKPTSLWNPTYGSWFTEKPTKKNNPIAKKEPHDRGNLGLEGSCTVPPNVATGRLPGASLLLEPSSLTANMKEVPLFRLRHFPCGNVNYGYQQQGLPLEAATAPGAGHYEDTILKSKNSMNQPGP

| Structure (SMILES) | pKi |
| --- | --- |
| CN1CCN(c2ccc(Nc3cc(-c4cccc(NS(=O)(=O)C5CC5)c4)cnc3C(N)=O)cc2)CC1 [Example 66, 5-{3-[(cyclopropylsulfonyl)amino]phenyl}-3-{[4-(4-methylpiperazin-1-yl)phenyl]amino}pyridine-2-carboxamide] | 6.00 to 7.00 |
| Cc1oncc1S(=O)(=O)Nc1cccc(-c2cnc(C(N)=O)c(Nc3ccc(N4CCN(C)CC4)cc3)c2)c1 [Example 67, 5-(3-{[(5-methyl-1,2-oxazol-4-yl)sulfonyl]amino}phenyl)-3-{[4-(4-methylpiperazin-1-yl)phenyl]amino}pyridine-2-carboxamide] | 6.00 to 7.00 |
| CN1CCN(c2ccc(Nc3cc(-c4cccc(NS(=O)(=O)c5cccs5)c4)cnc3C(N)=O)cc2)CC1 [Example 68, 3-{[4-(4-methylpiperazin-1-yl)phenyl]amino}-5-{3-[(2-thienylsulfonyl)amino]phenyl}pyridine-2-carboxamide] | > 7.00 |
| CN1CCN(c2ccc(Nc3cc(-c4cccc(NS(=O)(=O)c5ccn(C)n5)c4)cnc3C(N)=O)cc2)CC1 [Example 69, 3-{[4-(4-methylpiperazin-1-yl)phenyl]amino}-5-(3-{[(1-methyl-1H-pyrazol-3-yl)sulfonyl]amino}phenyl)pyridine-2-carboxamide] | 6.00 to 7.00 |
| CN1CCN(c2ccc(Nc3cc(Nc4ccccc4)cnc3C(N)=O)cc2)CC1 [Example 70, 5-anilino-3-{[4-(4-methylpiperazin-1-yl)phenyl]amino}pyridine-2-carboxamide] | 6.00 to 7.00 |
| CN1CCN(c2ccc(Nc3cc(Nc4ccccc4S(=O)(=O)N(C)C)cnc3C(N)=O)cc2)CC1 [Example 71, 5-{[2-(dimethylsulfamoyl)phenyl]amino}-3-{[4-(4-methylpiperazin-1-yl)phenyl]amino}pyridine-2-carboxamide] | 6.00 to 7.00 |

From patent US8859546B2, “Picolinamide inhibitors of kinases” (AbbVie Inc., priority 2011, dated 2014)
